Results: ChEMBL document CHEMBL3046171, “Synthesis and biological evaluation of gallic acid analogs” (Med Chem Res, 2013)
The source made the active and inactive calls. No cut-off for these calls is given here.

Legend:
CHO [1] = assay: Genotoxicity in Cricetulus griseus CHO (Chinese hamster ovary) cells assessed as slight increase in frequencies of sister chromatid exchange bearing cells at 200 uM by fluorescence-plus-Giemsa technique; assay type: toxicity, cell-based
CHO [2] = assay: Cytotoxicity against Cricetulus griseus CHO (Chinese hamster ovary) cells assessed as frequency of third generation of mitotic cells at 200 uM treated for 3 hr by BrdU assay (reference value: 0%); assay type: cell-based
CHO [3] = assay: Cytotoxicity against Cricetulus griseus CHO (Chinese hamster ovary) cells assessed as frequency of third generation of mitotic cells at 50 uM treated for 3 hr by BrdU assay (reference value: 0%); assay type: cell-based
CHO [4] = assay: Cytotoxicity against Cricetulus griseus CHO (Chinese hamster ovary) cells assessed as mitotic index at 200 uM treated for 3 hr by Giemsa staining based light microscopic analysis relative to untreated control (reference value: 100%); assay type: cell-based
CHO [5] = assay: Cytotoxicity against Cricetulus griseus CHO (Chinese hamster ovary) cells assessed as proliferative replication index at 100 uM treated for 3 hr by BrdU assay relative to untreated control (reference value: 100%); assay type: cell-based
CHO [6] = assay: Cytotoxicity against Cricetulus griseus CHO (Chinese hamster ovary) cells assessed as frequency of first generation of mitotic cells at 100 uM treated for 3 hr by BrdU assay (reference value: 10%); assay type: cell-based
CHO [7] = assay: Cytotoxicity against Cricetulus griseus CHO (Chinese hamster ovary) cells assessed as frequency of third generation of mitotic cells at 1000 uM treated for 3 hr by BrdU assay (reference value: 0%); assay type: cell-based
CHO [8] = assay: Cytotoxicity against Cricetulus griseus CHO (Chinese hamster ovary) cells assessed as mitotic index at 100 uM treated for 3 hr by Giemsa staining based light microscopic analysis relative to untreated control (reference value: 100%); assay type: cell-based
CHO [9] = assay: Cytotoxicity against Cricetulus griseus CHO (Chinese hamster ovary) cells assessed as frequency of second generation of mitotic cells at 200 uM treated for 3 hr by BrdU assay (reference value: 90%); assay type: cell-based
CHO [10] = assay: Cytotoxicity against Cricetulus griseus CHO (Chinese hamster ovary) cells assessed as proliferative replication index at 50 uM treated for 3 hr by BrdU assay relative to untreated control (reference value: 100%); assay type: cell-based
CHO [11] = assay: Cytotoxicity against Cricetulus griseus CHO (Chinese hamster ovary) cells assessed as frequency of second generation of mitotic cells at 50 uM treated for 3 hr by BrdU assay (reference value: 90%); assay type: cell-based
CHO [12] = assay: Genotoxicity in Cricetulus griseus CHO (Chinese hamster ovary) cells assessed as increase in frequencies of chromosomal aberrations bearing cells at 0.5 to 2 mM by Giemsa staining; assay type: toxicity, cell-based; conditions: 2000 µM
CHO [13] = assay: Genotoxicity in Cricetulus griseus CHO (Chinese hamster ovary) cells assessed as increase in frequencies of sister chromatid exchange bearing cells at 0.5 to 2 mM by fluorescence-plus-Giemsa technique; assay type: toxicity, cell-based; conditions: 2000 µM
CHO [14] = assay: Cytotoxicity against Cricetulus griseus CHO (Chinese hamster ovary) cells assessed as mitotic index at 50 uM treated for 3 hr by Giemsa staining based light microscopic analysis relative to untreated control (reference value: 100%); assay type: cell-based
CHO [15] = assay: Cytotoxicity against Cricetulus griseus CHO (Chinese hamster ovary) cells assessed as frequency of first generation of mitotic cells at 50 uM treated for 3 hr by BrdU assay (reference value: 10%); assay type: cell-based
CHO [16] = assay: Antioxidant activity in Cricetulus griseus CHO (Chinese hamster ovary) cells assessed as proportion of H2O2-induced chromosomal aberrations bearing cells at 200 uM pre-incubated with H202 for 1 hr prior to cell addition by Giemsa staining; assay type: functional
CHO [17] = assay: Genotoxicity in Cricetulus griseus CHO (Chinese hamster ovary) cells assessed as effect on frequencies of chromosomal aberrations bearing cells at <200 uM by Giemsa staining; assay type: toxicity, cell-based
CHO [18] = assay: Genotoxicity in Cricetulus griseus CHO (Chinese hamster ovary) cells assessed as effect on frequencies of sister chromatid exchange bearing cells at <200 uM by fluorescence-plus-Giemsa technique; assay type: toxicity, cell-based
CHO [19] = assay: Cytotoxicity against Cricetulus griseus CHO (Chinese hamster ovary) cells assessed as proliferative replication index at 200 uM treated for 3 hr by BrdU assay relative to untreated control (reference value: 100%); assay type: cell-based
CHO [20] = assay: Cytotoxicity against Cricetulus griseus CHO (Chinese hamster ovary) cells assessed as frequency of first generation of mitotic cells at 1000 uM treated for 3 hr by BrdU assay (reference value: 10%); assay type: cell-based
CHO [21] = assay: Cytotoxicity against Cricetulus griseus CHO (Chinese hamster ovary) cells assessed as mitotic index at 1000 uM treated for 3 hr by Giemsa staining based light microscopic analysis relative to untreated control (reference value: 100%); assay type: cell-based
CHO [22] = assay: Cytotoxicity against Cricetulus griseus CHO (Chinese hamster ovary) cells assessed as frequency of third generation of mitotic cells at 100 uM treated for 3 hr by BrdU assay (reference value: 0%); assay type: cell-based
CHO [23] = assay: Cytotoxicity against Cricetulus griseus CHO (Chinese hamster ovary) cells assessed as frequency of second generation of mitotic cells at 100 uM treated for 3 hr by BrdU assay (reference value: 90%); assay type: cell-based
CHO [24] = assay: Cytotoxicity against Cricetulus griseus CHO (Chinese hamster ovary) cells assessed as proliferative replication index at 1000 uM treated for 3 hr by BrdU assay relative to untreated control (reference value: 100%); assay type: cell-based
CHO [25] = assay: Cytotoxicity against Cricetulus griseus CHO (Chinese hamster ovary) cells assessed as frequency of second generation of mitotic cells at 1000 uM treated for 3 hr by BrdU assay (reference value: 90%); assay type: cell-based
CHO [26] = assay: Cytotoxicity against Cricetulus griseus CHO (Chinese hamster ovary) cells assessed as mitotic index at 500 uM treated for 3 hr by Giemsa staining based light microscopic analysis relative to untreated control (reference value: 100%); assay type: cell-based
CHO [27] = assay: Antioxidant activity in Cricetulus griseus CHO (Chinese hamster ovary) cells assessed as protection against H2O2-induced chromosomal aberrations treated for 15 min prior to H2O2 addition measured after 2 hr by Giemsa staining; assay type: functional, cell-based
CHO [28] = assay: Cytotoxicity against Cricetulus griseus CHO (Chinese hamster ovary) cells assessed as frequency of first generation of mitotic cells at 200 uM treated for 3 hr by BrdU assay (reference value: 10%); assay type: cell-based

Row | Structure (SMILES) | Activity (CHO [1]) | Activity (CHO [2]) | Activity (CHO [3]) | Activity (CHO [4]) | Activity (CHO [5]) | Activity (CHO [6]) | Activity (CHO [7]) | Activity (CHO [8]) | Activity (CHO [9]) | Activity (CHO [10]) | Activity (CHO [11]) | Activity (CHO [12]) | Activity (CHO [13]) | Activity (CHO [14]) | Activity (CHO [15]) | Activity (CHO [16]) | Activity (CHO [17]) | Activity (CHO [18]) | Activity (CHO [19]) | Activity (CHO [20]) | also measured
1 | COCCc1cc(O)c(O)c(O)c1 | Toxic | 0% | 0% | 87.7% | 96% | 18% | 0% | 80.8% | 66% | 102% | 94% | Toxic | Toxic | 79.1% | 6% | 5% | Non-toxic | Non-toxic | 87% | 0% | Activity (CHO [21]): 0%; Activity (CHO [22]): 0%; Activity (CHO [23]): 82%; Activity (CHO [24]): 0%; Activity (CHO [25]): 0%; Activity (CHO [26]): 15.6%; Activity (CHO [27]): Active; Activity (CHO [28]): 34%
2 | OCCc1cc(O)c(O)c(O)c1 [3,4,5-TRIHYDROXYPHENETHYL ALCOHOL] | Toxic | 0% | 0% | 58.3% | 92% | 25% | 0% | 99.1% | 50% | 100% | 92% | Toxic | Toxic | 96.5% | 8% | 5% | Non-toxic | Non-toxic | 79% | 0% | Activity (CHO [21]): 0%; Activity (CHO [22]): 0%; Activity (CHO [23]): 75%; Activity (CHO [24]): 0%; Activity (CHO [25]): 0%; Activity (CHO [26]): 4.3%; Activity (CHO [27]): Active; Activity (CHO [28]): 50%
